Here are results for one molecule from patent publication US6893830B1, “Method of screening oxysterol activation of LXRα” (The Board of Regents of the University of Texas System, priority 1996, dated 2005).

The target in this assay is T1, LXR-TR chimera (LXRα N-terminus and DNA binding domain fused to ligand binding domain of TRβ) (Homo sapiens, UniProt P10828+Q13133).
T1 sequence (Q13133+P10828 with tags, fused parts or gaps): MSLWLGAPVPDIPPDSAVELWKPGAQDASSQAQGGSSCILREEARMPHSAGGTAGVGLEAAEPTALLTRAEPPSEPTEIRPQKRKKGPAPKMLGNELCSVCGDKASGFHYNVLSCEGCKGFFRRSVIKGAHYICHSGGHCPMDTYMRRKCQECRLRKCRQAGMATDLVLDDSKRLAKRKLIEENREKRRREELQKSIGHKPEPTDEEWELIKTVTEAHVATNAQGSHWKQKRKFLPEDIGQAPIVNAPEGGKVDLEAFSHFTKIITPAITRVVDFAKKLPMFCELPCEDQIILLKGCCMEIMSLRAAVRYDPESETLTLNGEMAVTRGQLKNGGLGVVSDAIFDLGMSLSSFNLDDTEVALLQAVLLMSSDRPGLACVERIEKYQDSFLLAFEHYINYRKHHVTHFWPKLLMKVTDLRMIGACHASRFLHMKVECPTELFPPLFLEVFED
Particulars: CV-1 cells, TK-LXREx3-LUC.

With `CC(C)CC[C@@H](O)[C@@H](C)[C@H]1CC[C@H]2[C@@H]3CC=C4C[C@@H](O)CC[C@]4(C)[C@H]3CC[C@]12C` [22(R)-hydroxycholesterol], the “responsiveness of LXR-TR chimera” value is reported as “loses responsiveness”.
